# Results as given in patent US20230113037A1 (Bayer Aktiengesellschaft, priority 2019, published 2023).
# Like-named read-outs stand apart in the source and are kept apart here.
# Columns and labels:
# AHR [1] = target: T1, AHR (Mus musculus, UniProt P30561); assay: In vitro assay 3: antagonism in mouse cell line (AHR transactivation, firefly luciferase reporter, kynurenic acid prestimulated); format: cell-based
# T1 sequence (P30561 1-848 P471L/N533S/M589L): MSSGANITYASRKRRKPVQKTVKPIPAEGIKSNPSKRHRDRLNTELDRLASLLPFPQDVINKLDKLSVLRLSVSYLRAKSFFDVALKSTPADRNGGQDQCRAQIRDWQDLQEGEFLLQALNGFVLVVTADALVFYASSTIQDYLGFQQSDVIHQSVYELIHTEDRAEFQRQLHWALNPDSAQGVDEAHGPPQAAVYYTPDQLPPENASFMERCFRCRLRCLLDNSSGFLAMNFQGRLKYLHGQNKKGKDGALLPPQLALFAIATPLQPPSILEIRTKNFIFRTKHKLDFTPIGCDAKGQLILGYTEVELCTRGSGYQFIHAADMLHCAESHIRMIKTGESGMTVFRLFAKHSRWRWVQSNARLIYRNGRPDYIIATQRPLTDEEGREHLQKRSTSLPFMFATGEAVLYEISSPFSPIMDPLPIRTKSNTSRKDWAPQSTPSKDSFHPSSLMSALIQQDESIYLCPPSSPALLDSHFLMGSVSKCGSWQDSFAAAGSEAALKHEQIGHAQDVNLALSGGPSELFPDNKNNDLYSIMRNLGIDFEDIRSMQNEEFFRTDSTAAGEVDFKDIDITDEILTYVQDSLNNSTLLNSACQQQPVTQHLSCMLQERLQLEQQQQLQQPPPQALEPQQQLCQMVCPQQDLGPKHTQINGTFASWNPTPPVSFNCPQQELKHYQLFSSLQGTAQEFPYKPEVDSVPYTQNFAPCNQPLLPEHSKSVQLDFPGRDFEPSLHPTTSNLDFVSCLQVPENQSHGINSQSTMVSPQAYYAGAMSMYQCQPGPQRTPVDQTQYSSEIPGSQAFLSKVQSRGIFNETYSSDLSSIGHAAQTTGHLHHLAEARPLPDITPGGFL
# In short: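 Antagonism read as reduced firefly luciferase signal (SteadyGlo) from a stably transfected AHR/DRE reporter in a mouse line prestimulated with kynurenic acid. Data normalized to controls, the full-inhibition control being cells without kynurenic acid; multiple determinations given as average or median values.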
# AHR [2] = target: T2, AHR (Homo sapiens, UniProt P35869); assay: In vitro assay 1: antagonism in human cell line (AHR transactivation, firefly luciferase reporter, kynurenic acid prestimulated); format: cell-based; conditions: AHR Antagonism Human IC50 [M]
# T2 construct: U87 MG glioblastoma cells (ATCC #HTB-14) endogenously expressing AHR; endogenous in cells; host or cells: U87 MG glioblastoma cells (ATCC #HTB-14)
# T2 sequence (P35869 11-848): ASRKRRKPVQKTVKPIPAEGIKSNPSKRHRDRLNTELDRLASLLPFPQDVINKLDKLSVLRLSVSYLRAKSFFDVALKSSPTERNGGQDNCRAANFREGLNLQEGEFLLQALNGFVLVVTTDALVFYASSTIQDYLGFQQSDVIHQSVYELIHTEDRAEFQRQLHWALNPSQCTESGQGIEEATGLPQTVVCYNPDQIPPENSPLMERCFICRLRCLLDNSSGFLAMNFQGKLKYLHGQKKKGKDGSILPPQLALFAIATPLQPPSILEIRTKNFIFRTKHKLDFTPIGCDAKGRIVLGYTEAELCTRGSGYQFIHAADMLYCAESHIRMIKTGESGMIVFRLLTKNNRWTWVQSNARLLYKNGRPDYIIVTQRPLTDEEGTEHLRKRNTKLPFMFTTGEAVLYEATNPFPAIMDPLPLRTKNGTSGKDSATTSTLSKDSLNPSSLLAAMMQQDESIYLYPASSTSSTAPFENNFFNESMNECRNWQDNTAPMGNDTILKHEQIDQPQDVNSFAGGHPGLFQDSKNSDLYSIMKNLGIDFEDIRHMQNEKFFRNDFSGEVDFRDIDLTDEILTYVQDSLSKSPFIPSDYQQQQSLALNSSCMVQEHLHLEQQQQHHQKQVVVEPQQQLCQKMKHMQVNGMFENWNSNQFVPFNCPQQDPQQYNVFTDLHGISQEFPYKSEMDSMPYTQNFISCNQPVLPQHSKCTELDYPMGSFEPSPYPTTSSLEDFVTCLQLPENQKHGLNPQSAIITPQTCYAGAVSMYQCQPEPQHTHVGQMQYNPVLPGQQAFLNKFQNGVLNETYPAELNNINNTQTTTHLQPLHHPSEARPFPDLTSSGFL
# In short: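 Antagonism is measured against kynurenic acid prestimulation in U87 MG glioblastoma cells carrying stable DRE-luciferase and Renilla reporters. Positive inhibition control: 150 μM kynurenic acid with 5 μM staurosporine. Values are normalized to controls; repeats are averaged or given as medians.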
# [3] = mouse Hepa 1c1c7 cells, 200 μM kynurenic acid, 20 hours, read-out: AHR Antagonism Mouse IC50
# [4] = Hepa 1c1c7 cells, 200 μM kynurenic acid, 20 hours, firefly luciferase reporter, read-out: AHR Antagonism Mouse IC50
SMILES,IC50 (AHR [1]; [3]),IC50 (AHR [2]),IC50 (AHR [1]; [4]),IC50 (AHR [2]; firefly luciferase reporter),"IC50 (AHR [1]; read-out: AHR Antagonism Mouse IC50, mouse Hepa 1c1c7 cells, 200 μM kynurenic acid, 20 hours)"
"COc1cccc(-c2nc3c4cccc(C)c4nc(N[C@@H]4CCCCNC4=O)n3n2)c1 [Example 140, (3R)-3-{[2-(3-methoxyphenyl)-7-methyl[1,2,4]triazolo[1,5-c]quinazolin-5-yl]amino}azepan-2-one]",1.08 nM,1.09e-09 M,–,–,–
"CCCCNC(=O)[C@H](C)Nc1nc2c(Br)cccc2c2nc(-c3ccc(Cl)cc3OC(F)(F)F)nn12 [Example 687, N^2-{7-bromo-2-[4-chloro-2-(trifluoromethoxy)phenyl][1,2,4]triazolo[1,5-c]quinazolin-5-yl}-N-butyl-L-alaninamide]",97.8 nM,> 2e-06 M,–,–,–
"O=C1NCCC[C@H]1Nc1nc2ccccc2c2nc(-c3ccc(Cl)cc3OC(F)(F)F)nn12 [Example 519, (3R)-3-({2-[4-chloro-2-(trifluoromethoxy)phenyl][1,2,4]triazolo[1,5-c]quinazolin-5-yl}amino)piperidin-2-one]",22.2 nM,3.65e-08 M,–,–,–
"COc1cccc(-c2nc3c4ccc(F)cc4nc(N[C@@H]4CCNC4=O)n3n2)c1 [Example 152, (3R)-3-{[8-fluoro-2-(3-methoxyphenyl)[1,2,4]triazolo[1,5-c]quinazolin-5-yl]amino}pyrrolidin-2-one]",353 nM,5.28e-08 M,–,–,–
"COc1ccc(-c2nc3c4ccccc4nc(N[C@H](C)C(=O)NCC(C)(C)N)n3n2)cc1 [Example 784, N-(2-amino-2-methylpropyl)-N^2-[2-(4-methoxyphenyl)[1,2,4]triazolo[1,5-c]quinazolin-5-yl]-D-alaninamide]",–,–,48.1 nM,9.16e-08 M,–
"O=C1NCCCC[C@H]1Nc1nc2ccccc2c2nc(-c3cn[nH]c3)nn12 [Example 69, (3R)-3-{[2-(1H-pyrazol-4-yl)[1,2,4]triazolo[1,5-c]quinazolin-5-yl]amino}azepan-2-one]",460 nM,3.59e-07 M,–,–,–
"COc1ccc(-c2nc3c4cccc(O)c4nc(N[C@@H]4CCCCNC4=O)n3n2)cc1 [Example 669, (3R)-3-{[7-hydroxy-2-(4-methoxyphenyl)[1,2,4]triazolo[1,5-c]quinazolin-5-yl]amino}azepan-2-one]",–,1.99e-09 M,–,–,4.96 nM
"CCn1cc(-c2nc3c4cccc(C(F)(F)F)c4nc(N[C@H]4CNCCNC4=O)n3n2)c(C)n1 [Example 949, (6S)-6-{[2-(1-ethyl-3-methyl-1H-pyrazol-4-yl)-7-(trifluoromethyl)[1,2,4]triazolo[1,5-c]quinazolin-5-yl]amino}-1,4-diazepan-5-one]",–,–,14.7 nM,4.4e-09 M,–
"CCS(=O)(=O)c1cccc2c1nc(N[C@@H]1CNCCNC1=O)n1nc(-c3ccc(OC)cc3)nc21 [Example 940, (6R)-6-{[7-(ethanesulfonyl)-2-(4-methoxyphenyl)[1,2,4]triazolo[1,5-c]quinazolin-5-yl]amino}-1,4-diazepan-5-one]",–,–,57 nM,1.79e-08 M,–
CCSc1cccc2c1nc(N[C@@H]1CNCCNC1=O)n1nc(-c3cnn(C)c3)nc21 [Example 938],–,–,5550 nM,4.23e-07 M,–
"Cc1ccccc1-c1nc2c3ccccc3nc(NC3CNCCNC3=O)n2n1 (single isomer, unassigned) [Example 46, 6-{[2-(2-methylphenyl)[1,2,4]triazolo[1,5-c]quinazolin-5-yl]amino}-1,4-diazepan-5-one]",5.25 nM,2.93e-08 M,–,–,–
"CC[C@@H](Nc1nc2ccccc2c2nc(-c3cc(F)ccc3OC(F)(F)F)nn12)C(N)=O [Example 496, (2R)-2-({2-[5-fluoro-2-(trifluoromethoxy)phenyl][1,2,4]triazolo[1,5-c]quinazolin-5-yl}amino)butanamide]",1.9 nM,4.66e-08 M,–,–,–
"O=C1NCCCC[C@@H]1Nc1nc2ccccc2c2nc(-c3cc(F)ccc3OC(F)(F)F)nn12 [Example 493, (3S)-3-({2-[5-fluoro-2-(trifluoromethoxy)phenyl][1,2,4]triazolo[1,5-c]quinazolin-5-yl}amino)azepan-2-one]",36.9 nM,> 2e-05 M,–,–,–
"COc1cccc(-c2nc3c4ccccc4nc(NC4CCN(C)C4=O)n3n2)c1 (single isomer, unassigned) [Example 122, 3-{[2-(3-methoxyphenyl)[1,2,4]triazolo[1,5-c]quinazolin-5-yl]amino}-1-methylpyrrolidin-2-one]",26.1 nM,5.55e-08 M,–,–,–
"CCCCNC(=O)[C@H](C)Nc1nc2ccccc2c2nc(-c3ccc(Cl)cc3OC(F)F)nn12 [Example 533, N-butyl-N^2-{2-[4-chloro-2-(difluoromethoxy)phenyl][1,2,4]triazolo[1,5-c]quinazolin-5-yl}alaninamide]",3.94 nM,3.72e-09 M,–,–,–
"COc1cccc(-c2nc3c4cc(F)ccc4nc(NC4CCNC4=O)n3n2)c1 (centres unmarked) [Example 162, 3-{[9-fluoro-2-(3-methoxyphenyl)[1,2,4]triazolo[1,5-c]quinazolin-5-yl]amino}pyrrolidin-2-one]",25.5 nM,2.23e-08 M,–,–,–
"COc1ccccc1-c1nc2c3ccccc3nc(N[C@@H]3CCCCNC3=O)n2n1 [Example 61, (3R)-3-{[2-(2-methoxyphenyl)[1,2,4]triazolo[1,5-c]quinazolin-5-yl]amino}azepan-2-one]",664 nM,3.63e-08 M,–,–,–
"CCNC(=O)C(CC)Nc1nc2ccccc2c2nc(-c3ccccc3OC(F)(F)F)nn12 (single isomer, unassigned) [Example 664, N-ethyl-2-({2-[2-(trifluoromethoxy)phenyl][1,2,4]triazolo[1,5-c]quinazolin-5-yl}amino)butanamide]",1.47 nM,1.26e-08 M,–,–,–
"Cc1ccccc1-c1nc2c3ccccc3nc(NC3CCCNC3=O)n2n1 (centres unmarked) [Example 44, 3-{[2-(2-methylphenyl)[1,2,4]triazolo[1,5-c]quinazolin-5-yl]amino}piperidin-2-one]",16.9 nM,1.57e-08 M,–,–,–
"CCn1cc(-c2nc3c4cccc(Br)c4nc(N[C@@H]4CCCCNC4=O)n3n2)c(C)n1 [Example 825, (3R)-3-{[7-bromo-2-(1-ethyl-3-methyl-1H-pyrazol-4-yl)[1,2,4]triazolo[1,5-c]quinazolin-5-yl]amino}azepan-2-one]",–,–,0.475 nM,3.72e-10 M,–
"O=C1NCCNC[C@H]1Nc1nc2c(Cl)cccc2c2nc(-c3ccc(F)cc3)nn12 [Example 420, (6R)-6-{[7-chloro-2-(4-fluorophenyl)[1,2,4]triazolo[1,5-c]quinazolin-5-yl]amino]-1,4-diazepan-5-one]",0.887 nM,9.36e-10 M,–,–,–
"COc1ccc(-c2nc3c4ccccc4nc(N[C@H](C)C(=O)N4CCN(C(=O)OC(C)(C)C)CC4)n3n2)cc1 [Example 882, tert-butyl 4-{N-[2-(4-methoxyphenyl)[1,2,4]triazolo[1,5-c]quinazolin-5-yl]-D-alanyl}piperazine-1-carboxylate]",–,–,5.13 nM,5.91e-09 M,–
